1 molecule from patent US9403842B2, “Prasugrel in non-crystalline form and pharmaceutical composition thereof” (ratiopharm GmbH, priority 2009, dated 2016) can be followed below.

This data set is described as follows: pH-dependent degradation. The settings on record: pH values of <3, after just 2 hours. The data set is classed as physicochemical. On the procedure: At pH values of <3, degradation of more than 1% is observed after just 2 hours. This restricts the possible excipients used in the production of pharmaceutical formulations.

On to `CC(=O)Oc1cc2c(s1)CCN(C(C(=O)C1CC1)c1ccccc1F)C2` (stereo not drawn) [prasugrel, 2-acetoxy-5-(α-cyclopropylcarbonyl-2-fluorobenzyl)-4,5,6,7-tetrahydrothieno[3,2-c]pyridine], for which the degradation result is recorded as “more than 1%”.
